Data: paper PMC8397634 (Journal of Natural Medicines, 2021)
Values joined by “and” are separate entries in the source; they are usually repeats but may differ in a detail not shown here. Equal entries are not always repeated. “Also recorded” adds a separate entry of the source. Where two headings read alike, the source gives them in different places.

Legend:
α4β2 nAChRs [1] = target: T1, α4β2 nAChRs (Homo sapiens, UniProt P17787+P43681); assay: In vitro nAChR functional assay (automated patch-clamp, CHO cells); format: cell-based; conditions: for Emax: CHO, read-out: % activation of α4β2 nAChR (normalized to nicotine)
T1 sequence (P43681 29-627 limits assumed): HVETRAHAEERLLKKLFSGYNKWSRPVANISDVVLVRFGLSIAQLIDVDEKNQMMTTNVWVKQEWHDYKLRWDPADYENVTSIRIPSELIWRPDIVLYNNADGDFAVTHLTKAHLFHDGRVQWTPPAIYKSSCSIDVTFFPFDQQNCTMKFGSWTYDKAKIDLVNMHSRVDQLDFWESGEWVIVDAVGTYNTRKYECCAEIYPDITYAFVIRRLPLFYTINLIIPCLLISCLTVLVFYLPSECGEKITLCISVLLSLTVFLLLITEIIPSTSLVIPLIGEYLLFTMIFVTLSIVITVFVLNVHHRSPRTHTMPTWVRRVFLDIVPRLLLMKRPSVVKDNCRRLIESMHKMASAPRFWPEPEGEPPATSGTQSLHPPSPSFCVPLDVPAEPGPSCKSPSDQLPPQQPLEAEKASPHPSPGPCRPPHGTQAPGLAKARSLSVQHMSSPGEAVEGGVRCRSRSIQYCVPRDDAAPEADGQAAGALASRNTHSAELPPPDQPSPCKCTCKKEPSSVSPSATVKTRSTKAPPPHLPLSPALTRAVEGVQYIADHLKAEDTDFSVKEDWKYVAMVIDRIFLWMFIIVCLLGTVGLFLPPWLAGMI
T1 sequence (P17787 26-502): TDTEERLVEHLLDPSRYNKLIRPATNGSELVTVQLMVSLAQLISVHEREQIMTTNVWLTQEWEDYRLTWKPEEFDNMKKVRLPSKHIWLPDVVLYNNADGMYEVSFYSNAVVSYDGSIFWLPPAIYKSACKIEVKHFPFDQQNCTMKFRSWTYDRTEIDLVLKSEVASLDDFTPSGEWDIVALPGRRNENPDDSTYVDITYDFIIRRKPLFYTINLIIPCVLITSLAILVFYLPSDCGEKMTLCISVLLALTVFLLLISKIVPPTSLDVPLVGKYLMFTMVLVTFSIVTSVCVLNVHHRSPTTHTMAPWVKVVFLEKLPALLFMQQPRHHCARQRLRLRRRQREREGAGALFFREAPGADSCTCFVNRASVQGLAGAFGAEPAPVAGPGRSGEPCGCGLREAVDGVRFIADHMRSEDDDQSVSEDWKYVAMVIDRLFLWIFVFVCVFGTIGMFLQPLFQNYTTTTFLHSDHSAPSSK
Method: Electrophysiological responses were recorded using an automated patch-clamp Patchliner Octo® system (Nanion Technologies, Munich, Germany) equipped with two EPC-10 Quadro patch-clamp amplifiers (HEKA Elektronik, Lambrecht, Germany) as described previously. Chinese hamster ovarian (CHO) cells stably expressing human α4β2 nAChRs (Charles River Laboratories, Wilmington, MA, USA) were used. All experiments were performed at room temperature (24 °C) and repeated at least three times. Data were analyzed using Patchmaster software (HEKA Elektronik). Offline data analysis was performed in Apache OpenOffice™ (v4.1.2; […]). Igor Pro software (v6.2.2.2; WaveMetrics, Lake Oswego, OR, USA) was used to determine EC50 values. […] The average values were then fitted to the Hill equation: I=Baseline+X^∧nH(Imax-Baseline)/X^∧nH+EC50^∧nH, where I is the current response, Baseline is the minimal current response, X is the agonist concentration, nH is the Hill coefficient, Imax is the maximal current, and EC50 is the agonist concentration producing half-maximal activation. […]

[2] = system: zebrafish (Danio rerio; strain AB); conditions: for Time spent at the bottom of the tank during NTT / anxiolytic-like effect: 30 mg/L
Method: The NTT conditions closely matched the most commonly used conditions described by. In brief, adult male and female wild-type zebrafish were treated with the compounds for 20 min in a final volume of 50 mL in a 250-mL treatment beaker, one fish at a time. The fish were briefly rinsed in fresh system water, and then immediately transferred to a trapezoidal tank (14.6-cm height × 5.5-cm width × 27.9-cm top length and × 23.6-cm bottom length) filled with 1.5 L system water. The behavior of the fish was monitored for the next 5 min using the Noldus EthoVision XT system (Wageningen, Netherlands), with the camera placed approximately 1 m from the test tank. The tanks were uniformly illuminated from above at approximately 200 lx, reported to be the optimal illumination condition for NTT [23]. Background noise was kept at a minimum during the test. All experimental parameters were monitored closely and kept as consistent as possible throughout the study. The part of the tank filled with water (11.5-cm height) was virtually divided into top, center, and bottom of equal heights (approximately 3.8 cm per segment) for the analyses. The average time spent at the top and bottom portions of the tank was analyzed to determine the anxiety-like behavior of fish. The average total distance traveled and freezing time (as defined by a complete cessation of movement except for gills and eyes) were calculated to determine the effects of the compounds on the general behavior of fish. The analyses were conducted for 1-min time bins. To account for any day-to-day variability in fish behavior, fish treated with vehicle were tested on the same day as the compounds. […] A minimum of 12 fish (6 females and 6 males) per condition were used for the study. The actual sample size per condition is indicated in Online Resource 1. […] The experimenters were blind to the test conditions. The NTT was validated with buspirone, a clinical anxiolytic drug, as previously described.
If not, the concentration was reduced until no obvious signs of tolerability problems were observed. […] The concentrations were calculated based on the free base molecular weight.
Two-way repeated measures analysis of variance (ANOVA) with Dunnett post hoc was used for the 1-min binned analysis of the zebrafish NTT data. Treatment was one factor, and time was the second factor. […] Thus, male and female datasets were combined for the final analyses. […] The EC50 values were determined by applying the nonlinear regression analysis. All analyses were conducted using GraphPad Prism v8.2.1 (GraphPad Software, San Diego, CA, USA).

[3] = Brain bioavailability assay in zebrafish (UPLC-HRMS of brain homogenate); format: in vivo, Danio rerio; conditions: zebrafish brain after 20-min exposure, linear relationship assumed, mean ± SEM; for concentration at 20 min: both sexes, zebrafish (Danio rerio), 1 mg/L, read-out: Relative brain level per 1 mg/L compound
Method: Four fish (2 males and 2 females) per compound were used to determine the brain bioavailability of the compounds. Immediately after the 20-min compound treatment, the zebrafish were rinsed briefly to remove excessive compound on their body and terminated with 250 mg/L tricaine (CAS No. 886-86-2; Sigma). The fish were decapitated at the level of the gills using a surgical knife. The head was turned dorsal side down, and soft tissue was removed from the ventral side of the skull until the base of the skull was exposed. The skull was broken open and the bone from the ventral side of the brain was removed. The brain was then placed in a microcentrifuge tube, weighed, snap-frozen in liquid nitrogen, and stored at – 80 °C until the analysis.
Briefly, on the day of analysis, the brain samples were defrosted, resuspended in a methanol solution (2:1 [v/v] methanol:MilliQ water), and homogenized with vigorous agitation and ultrasonication (5 min each). The homogenate was centrifuged at 15,000 × rpm for 10 min, and the supernatant was analyzed using a UPLC-Q Exactive Orbitrap-HRMS system (Thermo Fisher Scientific™, Bremen, Germany). Chromatographic separation was achieved on a Synergi™ 4-µm Hydro-RP 80 Å, L.C. Column (250 × 4.6 mm; Phenomenex Inc., Torrance, CA, USA) with 0.1% formic acid in water (mobile phase A) and 0.1% formic acid in acetonitrile (mobile phase B). A gradient method at a 500 µL/min flow rate was applied as follows: (1) 5% B for 1 min, and (2) increase to 95% B over 7 min and hold for 2 min. The injection volume was 5 μL. The mass spectrometer was operated in electrospray positive mode (ESI, Thermo Fisher Scientific), while data acquisition was performed using the parallel reaction monitoring (PRM) and full scan modes. The source settings were set as follows: sheath gas flow rate = 60 psi; aux gas flow rate = 20 arbitrary units; spray voltage = 3.5 kV; capillary temperature = 280 °C; and sweep gas flow rate = 1. The full scan mode parameters were set as follows: resolution = 35,000 FWHM at 200 m/z; AGC target = 1E6; maximum injection time = 110 ms; and scan range = 100–350 m/z. The chromatographic and Orbitrap MS parameters for PRM analysis were the same as those in the full scan mode, except for: AGC target = 2E5; maximum IT = 60 ms; and resolution = 17,500 FWHM at 200 m/z. The XCalibur™ v4.0.27.19 software (Thermo Fisher Scientific) and TraceFinder™ v4.1 Forensic (Thermo Fisher Scientific, San José, CA, USA) were used for system control and data processing, respectively. The Q Exactive 2.8 SP 1 software (Thermo Fisher Scientific) was used to control the mass spectrometer.

[4] = system: other molecular targets (175 in vitro binding and enzymatic assays); assay: In vitro molecular target profiling (175 binding and enzymatic assays); conditions: 10 µM single concentration; 175 assays; effect greater than 50% considered significant
Method: (§1) All binding and functional assays for molecular target characterization were conducted by Eurofins Cerep SA (Celle-Lévescault, France) and Eurofins Panlabs Discovery Services Taiwan, Ltd. (New Taipei City, Taiwan) using their standard in vitro binding and functional assays (Online Source 2). The radioligand displacement binding assays employed the gold-standard filtration method using membrane preparations from stable cell lines expressing human or rodent target proteins to determine the interaction of the compounds with specific receptors, channels, and transporters. For this purpose, the competitive binding of test compounds against a [^125I]-, [^3H]-, or [^35S]-labeled agonist and/or antagonist was determined. The specific list of radiolabeled ligands and experimental conditions are summarized in Online Source 2. A single concentration of each compound (10 µM in 0.1% DMSO) was used for the screen. […] Negative values were considered to be an artifact arising from, for example, compounds interfering with the assay readout.
3.1. Experimental Conditions
In Vitro Pharmacology: Binding Assays
(§2) Assay Source Ligand Conc. Kd Non Specific Incubation Detection Bibl.

muscle-type nAChR = target: T2, muscle-type nAChR (Homo sapiens, UniProt P02708+P07510+Q07001); assay: Muscle-type nAChR radioligand binding (target profiling); conditions: 10 µM single concentration; effect greater than 50% considered significant
T2 construct: TE671 cells; host or cells: TE671 cells (endogenous)
T2 sequence (P02708 21-457): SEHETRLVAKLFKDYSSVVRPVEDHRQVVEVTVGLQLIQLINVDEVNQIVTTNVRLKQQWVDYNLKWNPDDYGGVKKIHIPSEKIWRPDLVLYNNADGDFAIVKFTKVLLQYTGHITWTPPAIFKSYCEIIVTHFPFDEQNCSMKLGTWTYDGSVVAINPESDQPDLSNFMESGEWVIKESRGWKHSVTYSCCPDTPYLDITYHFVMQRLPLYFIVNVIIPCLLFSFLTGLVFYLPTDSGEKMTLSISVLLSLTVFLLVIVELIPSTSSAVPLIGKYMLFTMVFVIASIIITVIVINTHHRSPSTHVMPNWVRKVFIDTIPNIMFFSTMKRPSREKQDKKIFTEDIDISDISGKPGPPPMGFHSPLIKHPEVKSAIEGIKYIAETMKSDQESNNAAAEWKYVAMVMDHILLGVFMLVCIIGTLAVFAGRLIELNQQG
T2 sequence (Q07001 22-517): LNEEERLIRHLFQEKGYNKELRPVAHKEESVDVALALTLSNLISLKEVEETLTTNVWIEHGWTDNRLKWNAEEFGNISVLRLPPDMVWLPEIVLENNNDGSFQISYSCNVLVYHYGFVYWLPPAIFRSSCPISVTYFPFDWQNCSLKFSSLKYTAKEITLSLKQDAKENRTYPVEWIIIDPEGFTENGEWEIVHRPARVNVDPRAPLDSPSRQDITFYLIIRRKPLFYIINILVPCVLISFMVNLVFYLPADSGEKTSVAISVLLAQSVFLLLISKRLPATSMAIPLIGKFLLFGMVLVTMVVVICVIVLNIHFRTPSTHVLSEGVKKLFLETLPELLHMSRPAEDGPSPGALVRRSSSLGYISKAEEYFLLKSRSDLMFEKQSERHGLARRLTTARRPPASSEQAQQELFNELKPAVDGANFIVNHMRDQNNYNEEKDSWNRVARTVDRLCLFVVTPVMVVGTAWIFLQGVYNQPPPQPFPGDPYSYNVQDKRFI
T2 sequence (P07510 23-517): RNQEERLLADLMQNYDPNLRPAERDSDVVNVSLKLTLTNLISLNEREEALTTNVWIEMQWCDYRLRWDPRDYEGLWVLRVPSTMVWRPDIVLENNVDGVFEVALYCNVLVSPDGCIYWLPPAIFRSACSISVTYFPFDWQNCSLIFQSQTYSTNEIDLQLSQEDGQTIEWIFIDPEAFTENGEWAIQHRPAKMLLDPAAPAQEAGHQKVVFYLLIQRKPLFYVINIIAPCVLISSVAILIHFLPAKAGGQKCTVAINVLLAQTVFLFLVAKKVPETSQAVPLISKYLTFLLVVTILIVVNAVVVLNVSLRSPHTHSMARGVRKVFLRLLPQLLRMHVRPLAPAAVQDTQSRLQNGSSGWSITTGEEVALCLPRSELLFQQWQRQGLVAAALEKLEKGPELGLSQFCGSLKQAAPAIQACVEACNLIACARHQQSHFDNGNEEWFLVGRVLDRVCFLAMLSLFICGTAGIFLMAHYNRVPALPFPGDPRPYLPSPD
Method: as §1, §2

α4β2 nAChRs [5] = target: T1, α4β2 nAChRs; assay: In vitro α4β2 nAChR radioligand displacement binding assay; set-up: host or cells: SH-SY5Y cells (human recombinant), membrane preparation
Method: as §1, §2

α7 nAChR = conditions: cited from earlier work
[6] = CHO cells stably expressing human α4β2 nAChRs, patch clamp, 24 °C, mean ± SEM (Fig. 1), read-out: α4β2 nAChR EC50
[7] = other: immersion in compound solution (waterborne exposure)
[8] = all concentrations tested, 20-min treatment, 5-min test, vs vehicle control

CN1C(=O)CC[C@H]1c1cccnc1 [Cotinine, (–)-cotinine]
EC50 (α4β2 nAChRs [1]; [6]): 85.3 µM | Emax (α4β2 nAChRs [1]): 59% | Time spent at the bottom of the tank during NTT ([2]; 100 mg/L, 20-min treatment): reduced the overall time spent at the bottom | Concentration needed for anxiolytic-like effect relative to nicotine ([2]; NTT): > 300 fold | concentration at 20 min [3, 7]: 20 ± 10 ng/g | Relative brain level per 1 mg/L compound [3]: less than 0.1 ng/mg tissue | Binding to or regulation of other molecular targets [4]: did not bind or regulate the activities of other molecular targets | Binding to muscle-type nAChR in target profiling (muscle-type nAChR): specific binding | Binding to α4β2 nAChR in target profiling (α4β2 nAChRs [5]; 10 µM single concentration, effect greater than 50% considered significant): specific binding | IC50 (α4β2 nAChRs [5]; n = 3, read-out: α4β2 nAChR IC50 (binding)): 9.9 µM

O=C(c1ccc(Cl)o1)N1CC2CNCC2C1 (centres unmarked) [AZD1446, 3-(5-chloro-2-furoyl)-3,7-diazabicyclo[3.3.0]octane, reference compound]
EC50 (α4β2 nAChRs [1]; [6]): 7.9 µM and < 8 µM | Emax (α4β2 nAChRs [1]): 100% | Time spent at the bottom of the tank during NTT / anxiolytic-like effect ([2]; 20-min treatment): decreased the time spent at the bottom at 2 and 4 min | Time spent at the bottom of the tank during NTT ([2]; 100 mg/L, 20-min treatment): decreased the time spent at the bottom for the first 2 min | Time spent at the top of the tank during NTT ([2]; 30 and 100 mg/L, 20-min treatment): increased the time spent at the top | Size of the reduction of anxiety-like behavior in NTT ([2]; lower two concentrations (30 and 100 mg/L)): ~ 10% | Relative brain level per 1 mg/L compound [3]: could not be detected; also recorded: at the limit of detection; also recorded: No value^d

CNCC/C=C/c1cccnc1 [Metanicotine, metanicotine]
Emax (α4β2 nAChRs [1]): 100% | EC50 (α4β2 nAChRs [1]; α4β2 nAChR EC50): 19.5 ± 6.4 µM | Time spent at the bottom of the tank during NTT [2, 8]: no significant effect | concentration at 20 min ([3]; in vivo): 70 ± 10 ng/g | Relative brain level per 1 mg/L compound [3]: less than 0.1 ng/mg tissue

CC(=O)OCC[N+](C)(C)C [Acetylcholine, reference compound]
% activation of α4β2 nAChR (normalized to nicotine) (α4β2 nAChRs [1]): 100% | Time spent at the bottom of the tank during NTT [2, 8]: no effect | concentration at 20 min [3, 7]: 20 ± 10 ng/g

CN1CC=CC[C@H]1c1cccnc1 [Methylanatabine, (S)-N-methylanatabine]
EC50 (α4β2 nAChRs [1]; [6]): < 8 µM | Emax (α4β2 nAChRs [1]): 26% | EC50 (α4β2 nAChRs [1]; α4β2 nAChR EC50): 6.2 µM | Concentration effective in reducing anxiety-like behavior in NTT ([2]; 20-min treatment): 10 mg/L | Time spent at the bottom of the tank during NTT ([2]; highest concentration tested (10 mg/L), 20-min treatment): anxiolytic-like effect | concentration at 20 min ([3]; in vivo): 1390 ± 560 ng/g | Relative brain level per 1 mg/L compound [3]: ~1 ng/mg tissue | IC50 (α4β2 nAChRs [5]): 0.891 µM

( ±)-nornicotine
% activation of α4β2 nAChR (normalized to nicotine) (α4β2 nAChRs [1]): 44% | Time spent at the bottom of the tank during NTT [2, 8]: no significant effect

O=C1CC2(CCCC2)CC(=O)N1CCCCN1CCN(c2ncccn2)CC1 [Buspirone, buspirone, reference compound]
Time spent at the bottom of the tank during NTT / anxiolytic-like effect ([2]; 20-min treatment): consistent anxiolytic-like effect across all time points | Freezing response during NTT ([2]; 100 mg/L): increased the freezing response at 1, 2, and 5 min | Total distance traveled during NTT ([2]; 100 mg/L): reduced the total distance traveled at 1, 4, and 5 min | Time spent at the bottom of the tank during NTT [2, 8]: either reduced the time spent on the bottom or increased the time spent on the top at multiple time points

c1cncc([C@@H]2CCCCN2)c1 [Anabasine, ( +)-Anabasine]
Emax (α4β2 nAChRs [1]): 7% | effectiveness in activating α4β2 nAChRs in vitro (α4β2 nAChRs [1]; preliminary data): 8 ± 4% | EC50 (α4β2 nAChRs [1]; α4β2 nAChR EC50, CHO cells stably expressing human α4β2 nAChRs, patch clamp, 24 °C, mean ± SEM (Fig. 1)): < 8 µM and 0.9 µM | Time spent at the bottom of the tank during NTT [2, 8]: no significant effect | concentration at 20 min ([3]; in vivo): 230 ± 70 ng/g | α7 nAChR activation relative to maximum receptor activation by nicotine or anatabine (α7 nAChR): approximately a third | α7 nAChR agonist activity (α7 nAChR; ref 2 (Alijevic, et al.)): weak α7 nAChR agonist

c1cnc2cc3c(cc2n1)[C@@H]1CNC[C@H]3C1 [Varenicline, reference compound]
concentration at 20 min [3, 7]: 450 ± 160 ng/g
